Measurements: patent US20240335452A1, “COMPOSITIONS AND METHODS OF COMBINATION THERAPY FOR TARGETING LYMPHOMA” (Cullgen (Shanghai), Inc., priority 2021, published 2024)

Columns and labels:
[1] = test system: IKZF1 or IKZF3; conditions: more potent than older IMiDs; stated as 'may be'; cited from earlier work
[2] = test system: SU-DHL-10 cells; test: Cell viability assay (CellTiter-Glo) in SU-DHL-10 cells; type: cell-based, human; conditions: SU-DHL-10, single agent, 5 days
Description: (§1) Experiments were performed in cultured human cells to assess the efficacy of combined EZH2 inhibitor and immunomodulatory drug (e.g., an IMiD) treatment using an EZH2-mutant DLBCL cell line, SU-DHL-10, and an EZH2-wild type line, OCI-LY7. Cells were purchased from Nanjing Cobioer Biotechnology. SU-DHL-10 and OCI-LY7 cells were cultured at 37° C. with 5% CO2 in RPMI 1640 Medium supplemented with 10% fetal bovine serum. Cells were authenticated using the short tandem repeat (STR) assays. Mycoplasma test results were negative.
(§2) The cultured cells were seeded at a density of 5000 cells per well in 96-well assay plates and treated with test compounds at 10 μM followed by a 11-point 3-fold serial dilution or an 8-point 10-fold serial dilution. Cell viability was determined after 5 days, using the CellTiter-Glo assay kit (Promega) according to the manufacturer's instructions. The dose-response curves were determined and IC50 values were calculated using the GraphPad Prism software following a nonlinear regression (least squares fit) method. Each data point in the figure represents the mean values of at least two technical replicates ± standard deviation.
(§3) Cells were treated with EZH2 inhibitors in the presence of IMiDs at concentrations sufficient to induce degradation of IKZF1 and IKZF3 but not enough to kill cells. CC-122 and CC-220 were tested at a concentration of 1 μM; CC-92480 and CFT7455 were tested at a concentration of 1 nM; and CC-99282 was tested at a concentration of 10 nM.

[3] = test system: OCI-LY7 cells; test: Cell viability assay (CellTiter-Glo) in OCI-LY7 cells; type: cell-based, human; conditions: for cell viability, response of the cells to the single agent: OCI-LY7, single agent, 5 days
Description: as §1, §2, §3

[4] = test system: SU-DHL-10 cells; test: Cell viability assay (CellTiter-Glo) in SU-DHL-10 cells; type: cell-based, human
[5] = OCI-LY7, in the presence of 100 nM CPI-0209
[6] = OCI-LY7, in the presence of 100 nM SHR2554
[7] = SU-DHL-10, in the presence of 100 nM CPI-0209
[8] = SU-DHL-10, in the presence of 100 nM SHR2554

Row | SMILES | potency with regard to IKZF1 or IKZF3 degradation relative to older IMiDs [1] | cell viability, response of the cells to the single agent [2] | cell viability (sensitivity of the cells to the compound in combination) [3, 5] | cell viability (sensitivity of the cells to the compound in combination) [3, 6] | cell viability, response of the cells to the single agent [3] | cell viability (sensitivity of the cells to the compound in combination) [4, 7] | cell viability (sensitivity of the cells to the compound in combination) [4, 8]
1 | N#Cc1ccc(N2CCN(Cc3ccc(COc4cccc5c4CN([C@H]4CCC(=O)NC4=O)C5=O)cc3)CC2)c(F)c1 [CC-92480, mezigdomide] | 1000 fold | – | – | – | – | – | –
2 | O=C1CC[C@H](N2C(=O)c3cccc(NCc4ccc(CN5CC(N6CCOCC6)C5)cc4F)c3C2=O)C(=O)N1 [CC-99282, (S)-2-(2,6-dioxopiperidin-3-yl)-4-((2-fluoro-4-((3-morpholinoazetidin-1-yl)methyl)benzyl)amino)isoindoline-1,3-dione] | – | moderately responsive | lowered cell viability more than treatment with CC-99282 alone | lowered cell viability more than treatment with CC-99282 alone | moderately responsive | lowered cell viability more than treatment with CC-99282 alone | lowered cell viability more than treatment with CC-99282 alone
3 | O=C1CC[C@H](N2C(=O)c3cccc4c(Cc5ccc(CN6CCOCC6)cc5)ccc2c34)C(=O)N1 [CFT7455, (S)-3-(6-(4-(morpholinomethyl)benzyl)-2-oxobenzo[cd]indol-1(2H)-yl)piperidine-2,6-dione] | – | moderately responsive | lowered cell viability more than treatment with CFT7455 alone | lowered cell viability more than treatment with CFT7455 alone | moderately responsive | lowered cell viability more than treatment with CFT7455 alone | lowered cell viability more than treatment with CFT7455 alone
